Test results taken from PubChem BioAssay (NCI).
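1) Cells in 96-well plates. 2) Compound, 48 h, 5 concentrations. 3) Linear interpolation between surrounding doses. 4) Unreached endpoint = highest concentration. Definition used: TGI = concentration required for complete inhibition of growth.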

Columns and labels:
Assay in all cases: NCI tumour cell line growth inhibition, 48 h
SK-OV-3 ovarian = tested on: SK-OV-3 ovarian
SN12C renal = tested on: SN12C renal
OVCAR-4 ovarian = tested on: OVCAR-4 ovarian
COLO 205 colon = tested on: COLO 205 colon
HCT-116 colon = tested on: HCT-116 colon
PC-3 prostate = tested on: PC-3 prostate
CCRF-CEM leukemia = tested on: CCRF-CEM leukemia
IGROV1 ovarian = tested on: IGROV1 ovarian
UACC-62 melanoma = tested on: UACC-62 melanoma
MOLT-4 leukemia = tested on: MOLT-4 leukemia

Row | Structure (SMILES) | TGI (SK-OV-3 ovarian) [µM] | TGI (SN12C renal) [µM] | TGI (OVCAR-4 ovarian) [µM] | TGI (COLO 205 colon) [µM] | TGI (HCT-116 colon) [µM] | TGI (PC-3 prostate) [µM] | TGI (CCRF-CEM leukemia) [µM] | TGI (IGROV1 ovarian) [µM] | TGI (UACC-62 melanoma) [µM] | TGI (MOLT-4 leukemia) [µM]
1 | O=C1C(c2c(O)[nH]c3ccc(Br)cc23)=Nc2ccc(Br)cc21 | 90.8 | > 100 | > 100 | > 100 | 34.6 | > 100 | > 100 | > 100 | > 100 | > 100
2 | C/C(=N\O)c1cccc[n+]1Cc1ccccc1 | > 100 | > 100 | > 100 | > 100 | > 100 | > 100 | > 100 | > 100 | > 100 | > 100
3 | C/C(=C/CC[C@]1(CO)CC[C@]2(C)[C@H](CC[C@@H]3[C@@]4(C)CC[C@H](OC5OC(CO)C(O)C(O)C5OC5OC(CO)C(O)C(O)C5O)C(C)(C)[C@@H]4CC[C@]32C)[C@H]1O)CO (stereo not given in full) | > 100 | > 100 | > 100 | > 100 | > 100 | > 100 | > 100 | > 100 | > 100 | > 100
4 | O=C1CSC(c2ccc(Cl)cc2Cl)N1c1ccc(Oc2ccc(Cl)cc2)c(Cl)c1 (stereo not given) | 85.6 | > 100 | 78.6 | 61 | 36.2 | > 100 | 61.3 | > 100 | 53.5 | 81.5
5 | CC1=CP(=O)(c2c(C(C)C)cc(C(C)C)cc2C(C)C)CCC1Cl (stereo not given) | 36.3 | 34.7 | 48.5 | 29.8 | 38.4 | 28 | 65.4 | 40.9 | 26.1 | 49.6
6 | COc1ccc(NCC(=O)Nn2c(-c3ccccc3)nc3ccccc3c2=O)cc1 | > 100 | > 100 | > 100 | > 100 | > 10 | > 100 | > 100 | > 100 | 32.3 | > 100
7 | OC1COC2CC(Nc3ccccn3)OC12 (stereo not given) | > 100 | > 100 | > 100 | > 100 | > 100 | > 100 | > 100 | > 100 | > 100 | > 100
8 | C(#CP(c1ccccc1)c1ccccc1)P(C#CP(c1ccccc1)c1ccccc1)c1ccccc1 | 26.1 | > 100 | > 100 | > 100 | > 100 | > 100 | > 100 | > 100 | > 100 | > 100
9 | c1ccc2c(c1)cc1n2CCc2c-1[nH]c1ccccc21 | > 10 | > 10 | > 10 | > 10 | > 10 | > 10 | > 10 | > 10 | > 10 | > 10
10 | NCCN1C(=O)c2ccccc2C1c1ccc(Cl)cc1 (stereo not given) | > 100 | > 100 | > 100 | > 100 | > 100 | > 100 | > 100 | > 100 | > 100 | > 100
11 | O=C1CN(c2cccc(Cl)c2)C(=O)CN1NCNN1CC(=O)N(c2cccc(Cl)c2)CC1=O | > 100 | > 100 | > 100 | > 100 | > 100 | > 100 | > 100 | > 100 | > 100 | > 100
12 | COc1cc(OC)c2c(c1)OC(c1cccnc1)C(c1ccccc1)C2=O (stereo not given) | > 100 | > 100 | > 100 | > 100 | > 100 | > 100 | > 100 | > 100 | > 100 | > 100
13 | O=C(NO)NCCCl | > 100 | > 100 | > 100 | > 100 | > 100 | > 100 | > 100 | > 100 | > 100 | > 100
14 | CCOC(=O)C1(C#N)CC1 | > 100 | > 100 | > 100 | > 100 | > 100 | > 100 | > 100 | > 100 | > 100 | > 100
15 | CC(C)(C)N/N=C(\C(=O)NC1=C(Cl)C(=O)c2ccccc2C1=O)C1C=CCS1(=O)=O (stereo not given) | > 100 | 31.6 | 30.7 | 30.2 | 35 | 62.2 | > 100 | 24.5 | 9.17 | > 100
16 | C=C(Cl)C(Cl)(CCl)CCC(Br)C(C)(C)Br (stereo not given) | > 10 | > 10 | > 10 | > 10 | > 10 | > 10 | > 10 | > 10 | > 10 | > 10
17 | Brc1cccc(C2ON=C(c3ccccc3)N2C23CC4CC(CC(C4)C2)C3)c1 (stereo not given) | > 10 | > 10 | > 10 | > 10 | > 10 | > 10 | > 10 | > 10 | > 10 | > 10
18 | Br[C@@H]1[C@H]2c3nc4ccccc4nc3[C@@H]1C[C@H]2Br | > 100 | > 100 | > 100 | > 100 | > 100 | > 100 | > 100 | > 100 | > 100 | > 100
19 | CC1=C(C)CC2(C=C(C(C)(C)C)C(=O)C(C(C)(C)C)=C2)SC1 | 71 | 33.2 | > 100 | 32.1 | > 100 | 73.8 | 51 | 29.4 | 95.6 | > 100
